# Laboratory results reported in US9346761B2, “Arginine methyltransferase inhibitors and uses thereof” (Epizyme, Inc., priority 2013, dated 2016).
# Structures can show the parent of a compound that is named as a salt.
# Tests used:
# [1] = molecular target: T1, Full-length human PRMT1 isoform 1 (Homo sapiens, UniProt Q99873); experiment: PRMT1 biochemical assay (3H-SAM Flashplate, peptide substrate)
# T1 construct: GST-tagged PRMT1; made in house; host or cells: High Five insect cells (baculovirus, pFastBacI)
# How it was run: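 GST-tagged full-length PRMT1 from baculovirus-infected cells, preincubated 30 min at room temperature with compound in 20 mM Bicine pH 7.6, TCEP, BSG, Tween 20. Reaction started with 3H-SAM plus biotinylated peptide, stopped with 300 uM unlabelled SAM. Streptavidin Flashplate capture and scintillation counting; % inhibition curve-fitted for IC50.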
# Full-length human PRMT6 = molecular target: T2, Full-length human PRMT6 (Homo sapiens, UniProt Q96LA8); experiment: PRMT6 biochemical assay (3H-SAM Flashplate, peptide substrate)
# T2 construct: Flag-PRMT6-His was eluted with 200 ug/ml FLAG peptide in the same buffer; made in house; host or cells: HEK 293F cells (BacMam virus, pFastBacMam)
# How it was run: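 Flag-PRMT6-His from baculovirus-infected cells, preincubated with compound 30 min at room temperature, then SAM/3H-SAM and biotinylated H4 36-50 peptide added; 20 mM Bicine pH 7.6, TCEP, BSG, Tween 20. Quenched with cold SAM, captured on streptavidin Flashplates; % inhibition from SAH/DMSO controls, 3- or 4-parameter IC50 fit.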
# T2 sequence (Q96LA8 with tags, fused parts or gaps): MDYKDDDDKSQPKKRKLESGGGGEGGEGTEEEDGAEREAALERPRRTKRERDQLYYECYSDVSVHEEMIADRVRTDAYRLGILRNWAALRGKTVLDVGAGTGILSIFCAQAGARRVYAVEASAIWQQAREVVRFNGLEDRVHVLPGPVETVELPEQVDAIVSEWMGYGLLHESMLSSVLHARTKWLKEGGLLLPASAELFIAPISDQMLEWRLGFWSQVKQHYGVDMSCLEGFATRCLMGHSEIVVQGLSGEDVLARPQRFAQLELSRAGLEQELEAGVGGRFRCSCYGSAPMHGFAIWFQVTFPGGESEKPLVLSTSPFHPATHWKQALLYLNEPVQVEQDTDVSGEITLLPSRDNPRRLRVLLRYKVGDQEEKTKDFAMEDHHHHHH
# T1 sequence (Q99873 with tags, fused parts or gaps): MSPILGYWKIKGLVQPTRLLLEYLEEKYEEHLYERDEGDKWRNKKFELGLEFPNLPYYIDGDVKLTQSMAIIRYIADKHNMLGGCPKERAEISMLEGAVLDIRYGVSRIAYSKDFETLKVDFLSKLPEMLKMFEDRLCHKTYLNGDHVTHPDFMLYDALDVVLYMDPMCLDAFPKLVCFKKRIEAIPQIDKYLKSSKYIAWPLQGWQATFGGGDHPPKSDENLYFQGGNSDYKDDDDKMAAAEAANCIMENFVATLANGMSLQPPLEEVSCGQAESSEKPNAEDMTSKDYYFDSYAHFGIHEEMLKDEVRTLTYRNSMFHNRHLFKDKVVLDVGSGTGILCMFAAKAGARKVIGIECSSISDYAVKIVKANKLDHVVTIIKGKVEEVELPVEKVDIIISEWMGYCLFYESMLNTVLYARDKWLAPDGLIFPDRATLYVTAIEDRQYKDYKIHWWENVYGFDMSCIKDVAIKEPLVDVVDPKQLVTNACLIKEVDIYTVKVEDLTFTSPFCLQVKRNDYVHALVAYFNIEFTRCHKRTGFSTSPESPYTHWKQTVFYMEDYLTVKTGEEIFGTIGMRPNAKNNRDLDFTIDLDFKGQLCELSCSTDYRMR
Compound,IC50 [1],IC50 (Full-length human PRMT6)
"CNCCN(C)Cc1cn(C2CCC2)nc1-c1ccc(OC(C)C)cc1 [Compound 254, N1-((1-cyclobutyl-3-(4-isopropoxyphenyl)-1H-pyrazol-4-yl)methyl)-N1,N2-dimethylethane-1,2-diamine hydrochloride]",< 100 nM,101 to 1000 nM
CN(CCN(C)C1CC1)Cc1c[nH]nc1-c1ccc(C#N)cc1 [Compound 184],1010 to 3000 nM,1010 to 3000 nM
C=CC(=O)Nc1cccc(-c2[nH]ncc2CN(C)CCNC)c1 [Compound 258],< 100 nM,101 to 1000 nM
CNCCN(C)Cc1cn(CC(=O)OC)nc1-c1ccc(OC(C)C)cc1 [Compound 248],101 to 1000 nM,101 to 1000 nM
CNCCN(C)Cc1cn(C)nc1-c1ccc(Oc2ccccc2)cc1 [Compound 207],< 100 nM,< 100 nM
CCNC(=O)c1cccc(-c2n[nH]cc2CN(C)CCNC)c1 [Compound 43],101 to 1000 nM,< 100 nM
CC(C)Oc1cccc(-c2n[nH]cc2CN(C)CCN)c1 [Compound 187],101 to 1000 nM,< 100 nM
"CNCCN(C)Cc1cn(CCOC)nc1-c1ccc(OC(C)C)cc1 [Compound 253, N1-((3-(4-isopropoxyphenyl)-1-(2-methoxyethyl)-1H-pyrazol-4-yl)methyl)-N1,N2-dimethylethane-1,2-diamine hydrochloride]",101 to 1000 nM,101 to 1000 nM
CN(CCN)Cc1c[nH]nc1-c1ccc(OCCO)cc1 [Compound 194],< 100 nM,< 100 nM
CC(C)Oc1cc(-c2n[nH]cc2CN(C)CCN)ccc1F [Compound 188],101 to 1000 nM,< 100 nM
CNCCN(C)Cc1cn[nH]c1-c1ccc(C#N)cc1 [Compound 17],< 100 nM,< 100 nM
CNCCN(C)Cc1cn[nH]c1-c1cc(F)cc(F)c1 [Compound 18],< 100 nM,< 100 nM
CNCCN(C)Cc1n[nH]cc1-c1ccc(OC(C)C)c(F)c1 [Compound 210],< 100 nM,< 100 nM
CC(C)Oc1ccc(-c2c[nH]nc2CN(C)CCN)cc1Cl [Compound 211],< 100 nM,< 100 nM
CNCCN(C)Cc1cn(C(C)C)nc1-c1ccc(F)cc1 [Compound 15],3010 to 10000 nM,101 to 1000 nM
CNCCN(C)Cc1cn(C2CC2)nc1-c1ccc(F)cc1 [Compound 13],1010 to 3000 nM,101 to 1000 nM
CNCCN(C)Cc1c[nH]nc1-c1cccc(C#N)c1 [Compound 22],101 to 1000 nM,< 100 nM
CNCCN(C)Cc1c[nH]nc1-c1ccc(Cl)c(F)c1 [Compound 182],< 100 nM,< 100 nM
CNCCN(C)Cc1c[nH]nc1-c1ccc(CO)cc1 [Compound 28],< 100 nM,< 100 nM
CNCCN(C)Cc1cn(C2CCCC2)nc1-c1ccc(OC(C)C)cc1 [Compound 214],< 100 nM,101 to 1000 nM
CNCCN(C)Cc1cn(CC(=O)O)nc1-c1ccc(OC(C)C)cc1 [Compound 250],101 to 1000 nM,3010 to 10000 nM
CN(CCN)Cc1c[nH]nc1-c1ccc(Oc2ccccc2)c(C#N)c1 [Compound 202],< 100 nM,< 100 nM
CNCCN(C)Cc1c[nH]nc1-c1ccc(O)cc1 [Compound 27],< 100 nM,< 100 nM
CNCCN(C)Cc1cn(CCCC(O)CO)nc1-c1ccc(F)cc1 (centres unmarked) [Compound 30],3010 to 10000 nM,101 to 1000 nM
"CN(CCN)Cc1c[nH]nc1-c1ccc(Oc2ccc(F)cc2)cc1 [Compound 225, N^1-((3-(4-(4-fluorophenoxy)phenyl)-1H-pyrazol-4-yl)methyl)-N^1-methylethane-1,2-diamine]",< 100 nM,< 100 nM
CNCCN(C)Cc1c[nH]nc1-c1ccccc1C(F)(F)F [Compound 38],1010 to 3000 nM,101 to 1000 nM
CNCCN(C)Cc1n[nH]cc1-c1ccc(Oc2ccccc2)cc1 [Compound 204],< 100 nM,< 100 nM
CNCCN(C)Cc1cnn(C(C)C)c1-c1ccc(F)cc1 [Compound 16],1010 to 3000 nM,< 100 nM
